Reference: patent US20230270754A1, “COMBINATION THERAPY FOR INHALATION ADMINISTRATION” (Chemo Research, S.L., priority 2020, published 2023)

What was measured:
Assay type in all cases: physicochemical
[1] = Active ingredient content after filtration (assay by Reverse Phase HPLC), Example 1; conditions: triple combination BDP/GB/FF; for Formulation 1 Assay (%) active ingredient content compared to the theoretical amount: Formulation 1: 70% Ethanol; for Formulation 2 Assay (%) active ingredient content compared to the theoretical amount: Formulation 2: 96% Ethanol
Experimental: Both formulations were filtrated, and individual assay of all active ingredients were tested by Reverse Phase HPLC.
Three independent Reverse Phase HPLC analytical methods were used for the determination of each active ingredient in all the analyses.

[2] = Delivered dose by dose unit sampling apparatus (DUSA), Example 2
Description: Active pharmaceutical ingredients (APIs) deposited in the sampling apparatus were quantitatively recovered with a DUSA shaker (Copley Scientific Ltd) and methanol. APIs were, then, quantified by HPLC with the same methods described in Example 1.
Results are expressed as the average of 5 measurements.

[3] = APSD by NGI, Example 2 Trimbow pMDI vs soft mist inhaler
Experimental: (§1) The in vitro aerodynamic assessment was carried using a next generation impactor, NGI (Copley Scientific Ltd), equipped with a mouthpiece adapter for the insertion of the inhaler, an induction port and an internal filter holder (IFH) to capture the smaller particles. The product was tested as per procedure detailed in the European pharmacopoeia chapter 2.9.18 (apparatus E) and US Pharmacopeia chapter <601> (apparatus 6) for Soft Mist Inhalers.
The NGI was cooled to 5° C. for at least 75 min. The cooling chamber was then opened and, after 30 minutes, the NGI was connected to a HCP5 vacuum pump (Copley Scientific Ltd). […]
(§2) After the required actuations, the particles deposited on the different surfaces of the impactor were extracted using a suitable diluent (methanol) and with the help of a Gentle Rocker (Copley Scientific Ltd).
(§3) Data analysis. The NGI results were plotted against the stage cut-off diameter as the mass recovered from the induction port to the filter. Fine particle fraction (FPF %), mass median aerodynamic diameter (MMAD), fine particle dose (FPD) were determined from the analysis of the NGI data.
(§4) Results are expressed as the mean value of two NGIs analysis.

[4] = APSD by NGI, Example 3 Foster pMDI vs soft mist inhaler
Experimental: as §1, with “European” for “European pharmacopoeia chapter 2.9.18 (apparatus E)”, “Pharmacopeia” for “Pharmacopeia chapter <601> (apparatus 6)”, “Inhalers and pMDIs.” for “Inhalers.”
The NGI was cooled to 5° C. for at least 75 min. The cooling chamber was then opened and, after 30 minutes, the NGI was connected to a HCP5 vacuum pump (Copley Scientific Ltd). For each experiment, ten doses were discharged into the NGI at 30 L/min for 5 seconds each.
as §2, with “Ltd). Active ingredients were then quantified by HPLC, with the same methods used for the Example 1.” for “Ltd).”
Data analysis. The NGI was plotted against the stage cut-off diameter as the mass recovered from the induction port to the filter. Fine particle fraction (FPF %) and mass median aerodynamic diameter (MMAD) were determined from the analysis of the NGI data.
as §4

[5] = APSD by NGI, Example 4 budesonide/formoterol 70% vs 96% ethanol, soft mist inhaler
Experimental: Typical System Suitability Criteria applies as per USP <621> requirements.
For the APSD evaluation Formulation 1 and 2 were filled into cartridges compatible with a soft mist inhaler (Respimat®). The in vitro aerodynamic particle size distribution of both formulations was evaluated using an impactor, the next generation impactor, NGI (Copley Scientific Ltd) equipped with a mouthpiece adapter for the insertion of the inhaler, an induction port and an internal filter holder (IFH) to capture the smaller particles. The product was tested as per procedure detailed in the European pharmacopoeia chapter 2.9.18 (apparatus E) and US Pharmacopeia chapter <601> (apparatus 6) for Soft Mist Inhalers.
(§5) The NGI was cooled to 5° C. for at least 75 min. The cooling chamber was then opened and, after 30 minutes, the NGI was connected to a HCP5 vacuum pump (Copley Scientific Ltd). For each experiment, ten doses were discharged per NGI actuated at 28.3 L/min for 5 seconds each.
(§6) After the required actuations, the particles deposited on the different surfaces of the impactor were extracted using a suitable diluent (75/25 v/v MeOH/water) and with the help of a Gentle Rocker (Copley Scientific Ltd). Active ingredients were then quantified by HPLC as described above.
as §3, §4

[6] = APSD by NGI, Example 5 Symbicort pMDI vs soft mist inhaler
Experimental: The in vitro aerodynamic particle size distribution of both formulations was evaluated using an impactor, the next generation impactor, NGI (Copley Scientific Ltd) equipped with a mouthpiece adapter for the insertion of the inhaler, an induction port and an internal filter holder (IFH) to capture the smaller particles. The product was tested as per procedure detailed in the European and US Pharmacopoeia for Soft Mist Inhalers and pMDIs.
as §5
as §6, with “HPLC, with the same methods” for “HPLC as”, “in example 4.” for “above.”
Data analysis. The NGI was plotted against the stage cut-off diameter as the mass recovered from the induction port to the filter. Fine particle fraction (FPF %), and mass median aerodynamic diameter (MMAD) were determined from the analysis of the NGI data.
as §4

[7] = Soft Mist Inhaler (Respimat) 1 actuation, triple combination in 96% ethanol
[8] = Soft Mist Inhaler (1 actuation), triple combination in 96% ethanol
[9] = Soft Mist Inhaler (1 actuation), double combination BDP/FF in 96% ethanol
[10] = Trimbow pMDI (2 actuations), table title: Foster pMDI (2 actuation)
[11] = Soft Mist Inhaler (1 actuation), budesonide/formoterol in 96% ethanol

Structure (SMILES)	Formulation 1 Assay (%) active ingredient content compared to the theoretical amount [1]	Formulation 2 Assay (%) active ingredient content compared to the theoretical amount [1]	DUSA (μg) delivered dose [2, 7]	DUSA (μg) delivered dose ([2]; Trimbow pMDI 1 actuation)	FPD [3, 8]	FPF [3, 8]	IP (induction port deposition) [3, 8]	FPD ([3]; Trimbow pMDI (2 actuations))	FPF ([3]; Trimbow pMDI (2 actuations))	IP (induction port deposition) ([3]; Trimbow pMDI (2 actuations))	FPF (%) [4, 9]	MMAD (μm) [4, 9]	FPF (%) [4, 10]	MMAD (μm) [4, 10]	also measured
CCC(=O)OCC(=O)[C@@]1(OC(=O)CC)[C@@H](C)C[C@H]2[C@@H]3CCC4=CC(=O)C=C[C@]4(C)[C@@]3(Cl)[C@@H](O)C[C@@]21C [Beclometasone Dipropionate, 9-chloro-11β,17,21-trihydroxy-16β-methylpregna-1,4-diene-3, 20-dione 17,21-dipropionate]	40.1%	99.7%	97.1 µg	98.4 µg	91.7 µg	87.9%	8.3%	86.0 µg	42.9%	52.9%	91.3%	1.1 μm	49.4%	1.2 μm	MMAD [3, 8]: 1.2 μm; MMAD ([3]; Trimbow pMDI (2 actuations)): 1.2 μm
COc1ccc(C[C@@H](C)NC[C@H](O)c2ccc(O)c(NC=O)c2)cc1.O.O.O=C(O)/C=C/C(=O)O (racemic) [Formoterol Fumarate]	93.8%	100.3%	6.1 µg	5.7 µg	5.3 µg	87.8%	8.3%	5.2 µg	44.6%	53.4%	90.4%	1.2 μm	45.8%	1.2 μm	FPD ([5]; Formulation 1 (70% EtOH)): 3.3 µg; FPF ([5]; Formulation 1 (70% EtOH)): 68.4%; MMAD ([5]; Formulation 1 (70% EtOH)): 2.7 μm; FPF ([5]; Formulation 2 (96% EtOH)): 89.7%; FPF (%) [6, 11]: 89.7%; MMAD (μm) [6, 11]: 1.1 μm; FPF (%) ([6]; Symbicort pMDI (1 actuation)): 58.7%; MMAD (μm) ([6]; Symbicort pMDI (1 actuation)): 3.3 μm
